Assay results published in PMC3874807 (Bioorganic & medicinal chemistry letters, 2013).

Molecular target: BpIspF (Burkholderia pseudomallei, UniProt Q3JRA0)
Test: biochemical
Assay type: binding

Sequence of BpIspF (Q3JRA0 whole entry, looked up): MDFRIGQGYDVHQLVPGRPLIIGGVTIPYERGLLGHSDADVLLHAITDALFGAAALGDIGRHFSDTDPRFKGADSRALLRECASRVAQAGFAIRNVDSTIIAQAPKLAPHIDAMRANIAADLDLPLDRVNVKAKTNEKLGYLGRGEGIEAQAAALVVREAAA

Q: `Oc1ccc(-n2ccnc2)cc1` [FOL955] was tested. Which Kd did it give?
A: > 500 µM
